In paper PMC8577775, “Small molecule allosteric inhibitors of RORγt block Th17-dependent inflammation and associated gene expression in vivo” (PLoS ONE, 2021):
pIC50: −log10 of the molar value.

Legend:
[1] = system: PDAC PDO model T031P; assay: In vitro organoid formation assay (CellTiter-Glo 3D); type: cell-based; settings: Homo sapiens, T031P, treated 24 hr post-plating
Protocol: Patient derived organoids were established as previously described. Briefly, PDX tumor chunks were minced then enzymatically digested into single cells by using a tumor dissociation Kit (Miltenyi, Cat# 130-095-929). Mouse and human cells were separated through magnetic separation, and isolated tumor cells were cultured on Matrigel-coated dishes. Organoid cultures were maintained by growing on Matrigel in human complete maintenance media: Advanced DMEM/F12 media (Life Technology, Cat# 12634028), 10 mM HEPES (Life Technology, Cat# 15630–080), 1X Glutamax (Life Technology, Cat# 35050–061), 1X Antibiotic-Antimycotic (Life Technology, Cat# 15240–062), 10 mM Nicotinamide (Sigma-Aldrich, Cat# N0636-500G), 250 ng/mL R-Spondin-1 (Peprotech, Cat# 120–38), 100 ng/mL Noggin (Peprotech, Cat# 120-10C), 50 ng/mL EGF (Peprotech, Cat# AF-100-15), 100 ng/mL FGF10 (Peprotech, Cat# 100–26), […] (Sigma-Aldrich, Cat# G9020), 500 nM A83-01 (Sigma, Cat# SML0788), 20 μM Y-27632 (LC Laboratories, Cat# Y-5301), 1X B27 (Life Technology, Cat# 12587010), 10 ng/mL Wnt3a (R&D Systems, Cat# 5036-WN-010), 0.1% Methylcelluose (R&D Systems, Cat# HSC001) and Plasmocin (Invivogen, Cat# Ant-mpp) and were passaged every 10–14 days. Organoids were isolated from Matrigel (Corning, Cat# 08-774-406) in a cell recovery solution (Corning, Cat# CB-40253). Spheroid clusters were then dissociated into a single cell suspension with TrypLE (Gibco, Cat# 12605). […]
(§1) Organoids were isolated and dissociated as described above. Cell numbers were counted by trypan blue exclusion and 5000 cells per well were plated on the Matrigel coated and pre-warmed 96-well plates. […] 100 μl of CellTiter-Glo® 3D reagent (Promega cat# G9682) was added to each well after desired time points and luminescence signal measured after 30 minutes.
(§2) Supplementary file pone.0248034.s010.tif: S6 Fig Schematic of Patient-derived organoids (PDO) growth & formation assays. […] After the indicated treatment schedule organoid growth or formation was assessed by CTG assay. […]

[2] = system: PDAC PDO model T031P; assay: In vitro organoid growth assay (CellTiter-Glo 3D), T031P; type: cell-based, human; settings: 30 μM, 120 hours of treatment
Protocol: Patient derived organoids were established as previously described. Briefly, PDX tumor chunks were minced then enzymatically digested into single cells by using a tumor dissociation Kit (Miltenyi, Cat# 130-095-929). Mouse and human cells were separated through magnetic separation, and isolated tumor cells were cultured on Matrigel-coated dishes. […]
as §1, §2

[3] = system: RORγt-dependent inflammation; assay: RORγt/Th17-dependent inflammation in vivo, overall statement (acute and chronic settings); settings: with IC50 coverage alone (same level of response)

Structure (SMILES): O=C(O)[C@@H]1CCC(c2nn(C(=O)c3c(Cl)cccc3C(F)(F)F)c3cccc(F)c23)=C[C@H]1O [Compound 3]
- pIC50 ([1]; 120 hours): 4.52
- pIC50 ([1]; 168 hours): 5.00
- decrease of organoid growth [2]: ~ 30%
- inhibition of Th17-dependent responses [3]: ~ 45%
